By IC50 is commonly meant the midpoint of a concentration-inhibition curve.

Common to all, as to assay type: functional, cell-based
The subject of experiment [1] is A549. Briefly: Antiproliferative activity against human A549 cells assessed as cell viability by WST-1 assay. Background: Tetrazolium dyes change colour on reduction, which living cells bring about.
Another experiment relates to MV4-11. The experiment is described as follows: Antiproliferative activity against human MV4-11 cells assessed as cell viability by WST-1 assay.
The subject of a further experiment is MG-63. The experiment is described as follows: Antiproliferative activity against human MG-63 cells assessed as cell viability by WST-1 assay.
For a further experiment, the system named is NCI-H23. Briefly: Antiproliferative activity against human NCI-H23 cells assessed as cell viability by WST-1 assay.
In a further experiment the test system is MDA-MB-231. The experiment is described as follows: Antiproliferative activity against human MDA-MB-231 cells assessed as cell viability by WST-1 assay.
In a further experiment the test system is MDA-MB-468. The experiment is described as follows: Antiproliferative activity against human MDA-MB-468 cells assessed as cell viability by WST-1 assay.
A further experiment concerns GCIY. Briefly: Antiproliferative activity against human GCIY cells assessed as cell growth inhibition measured after 72 hrs.
Experiment [2] is described as follows: Antiproliferative activity against human SH-10-TC cells assessed as cell growth inhibition measured after 72 hrs.
The test system of another experiment is HCT-116. Briefly: Antiproliferative activity against human HCT-116 cells assessed as cell growth inhibition measured after 72 hrs. To be noted: HCT-116, 72 h.
The next experiment relates to DLD-1. The experiment is described as follows: Antiproliferative activity against human DLD-1 cells assessed as cell growth inhibition measured after 72 hrs. As to conditions: DLD-1, 72 h.
In experiment [3] the test system is A549. Briefly: Antiproliferative activity against human A549 cells assessed as cell growth inhibition measured after 72 hrs. To be noted: A549, 72 h.
The subject of another experiment is ACHN. The experiment is described as follows: Antiproliferative activity against human ACHN cells assessed as cell growth inhibition measured after 72 hrs.
The next experiment deals with Huh-7. The experiment is described as follows: Antiproliferative activity against human Huh-7 cells assessed as cell growth inhibition measured after 72 hrs. As to conditions: Huh-7, 72 h.
Experiment [4] can be described thus: Antiproliferative activity against human OVK18 cells assessed as cell growth inhibition measured after 72 hrs. To be noted: OVK18, 72 h.
Another experiment has as its system MCF7. The experiment is described as follows: Antiproliferative activity against human MCF7 cells assessed as cell growth inhibition measured after 72 hrs. As to conditions: MCF7, 72 h.
Another experiment relates to A-431. The experiment is described as follows: Antiproliferative activity against human A-431 cells assessed as cell growth inhibition measured after 72 hrs. To be noted: A-431, 72 h.
The test system of the next experiment is HuCCT-1. The experiment is described as follows: Antiproliferative activity against human HuCCT-1 cells assessed as cell growth inhibition measured after 72 hrs. To be noted: HuCCT-1, 72 h.
A further experiment relates to 8505C. Briefly: Antiproliferative activity against human 8505C cells assessed as cell growth inhibition measured after 72 hrs.
The subject of the next experiment is G-361. Briefly: Antiproliferative activity against human G-361 cells assessed as cell growth inhibition measured after 72 hrs. To be noted: G-361, 72 h.
A further experiment relates to PC-3. The experiment is described as follows: Antiproliferative activity against human PC-3 cells assessed as cell growth inhibition measured after 72 hrs. To be noted: PC-3, 72 h.
Experiment [5] can be described thus: Antiproliferative activity against human PK-1 cells assessed as cell growth inhibition measured after 72 hrs. As to conditions: PK-1, 72 h.
A further experiment relates to HeLa. Briefly: Antiproliferative activity against human HeLa cells assessed as cell growth inhibition measured after 24 hrs by MTT assay.
For a further experiment, the system named is THP-1. The experiment is described as follows: Antiproliferative activity against human THP-1 cells assessed as cell growth inhibition measured after 24 hrs by MTT assay. As to conditions: THP-1, 24 h.
For another experiment, the system named is HepG2. Briefly: Antiproliferative activity against human HepG2 cells assessed as cell growth inhibition measured after 24 hrs by MTT assay. As to conditions: HepG2, 24 h.
In a further experiment the test system is K562. The experiment is described as follows: Antiproliferative activity against human K562 cells assessed as cell growth inhibition measured after 24 hrs by MTT assay. As to conditions: K562, 24 h.

Where only a bound is given, the exact number is not on record here.

Regarding `COc1cc(/C=C2\CN(C)C/C(=C\c3cc(OC)c(OC)c(OC)c3)C2=O)cc(OC)c1OC`, the IC50 in the experiment on A549 [1], in the experiment on MV4-11, with MG-63, in the experiment with NCI-H23, with MDA-MB-231 and in the experiment on MDA-MB-468 was 390 nM throughout.
Regarding `O=C1/C(=C/c2ccccc2Cl)CNC/C1=C\c1ccccc1Cl`, the IC50 in the experiment on A549 [1], in the experiment with MV4-11, in the experiment on MG-63, in the experiment with NCI-H23, in the experiment with MDA-MB-231 and with MDA-MB-468 was 390 nM each time.
Take `O=C1/C(=C/c2ccccc2Br)CNC/C1=C\c1ccccc1Br`: the IC50 in the experiment with A549 [1], with MV4-11, in the experiment on MG-63, in the experiment on NCI-H23, with MDA-MB-231 and in the experiment with MDA-MB-468 was 390 nM in each case.
With `COc1cccc(/C=C2\CNC/C(=C\c3cccc(OC)c3OC)C2=O)c1OC`, the IC50 with A549 [1], with MV4-11, in the experiment on MG-63, in the experiment with NCI-H23, in the experiment on MDA-MB-231 and with MDA-MB-468 was 390 nM throughout.
With `COc1cc(/C=C2\CN(C(=O)C(C)C)C/C(=C\c3cc(OC)c(OC)c(OC)c3)C2=O)cc(OC)c1OC`, the IC50 with A549 [1], in the experiment with MV4-11, with MG-63, in the experiment on NCI-H23, in the experiment on MDA-MB-231 and in the experiment with MDA-MB-468 was 390 nM throughout.
Consider `COc1ccc(/C=C2\CCC/C(=C\c3ccc(OC)c(OC)c3)C2=O)cc1OC`, for which the IC50 (in the experiment on GCIY; in [2]; in the experiment with HCT-116; with DLD-1; with A549 [3]; in the experiment with ACHN) was 10000 nM in each case. The IC50 (in the experiment on Huh-7; in experiment [4]; with MCF7; in the experiment with A-431; with HuCCT-1; in the experiment with 8505C) was 10000 nM each time. In addition, the IC50 (in the experiment on G-361; in the experiment with PC-3; in experiment [5]) was 10000 nM in each case.
Take `O=C1/C(=C/c2cccc(/N=C/c3ccc(O)cc3O)c2)CCC/C1=C\c1cccc(/N=C/c2ccc(O)cc2O)c1`: the IC50 in the experiment with HeLa, in the experiment with THP-1, with HepG2 and in the experiment on K562 was under 5000 nM in each case.
On to `O=C1/C(=C/c2ccc(Cl)cc2Cl)CNC/C1=C\c1ccc(Cl)cc1Cl`, for which the IC50 with A549 [1], with MV4-11, in the experiment with MG-63, with NCI-H23, in the experiment with MDA-MB-231 and in the experiment with MDA-MB-468 was 390 nM throughout.
Take `O=C1/C(=C/c2cccc(/N=C/c3ccccc3O)c2)CCC/C1=C\c1cccc(/N=C/c2ccccc2O)c1`: the half-inhibitory concentration (IC50) with HeLa, in the experiment with THP-1, in the experiment on HepG2 and in the experiment on K562 was under 5000 nM each time.
On to `COc1ccc(/C=C2\CC(C)C/C(=C\c3ccc(OC)c(OC)c3)C2=O)cc1OC` (stereo not drawn), for which the 50% inhibitory concentration (IC50) (with GCIY; in [2]; with HCT-116; with DLD-1; with A549 [3]; in the experiment on ACHN) was over 50000 nM throughout. For the same compound, the half-inhibitory concentration (IC50) (with Huh-7; in experiment [4]; in the experiment on MCF7; in the experiment on A-431; with HuCCT-1; in the experiment on 8505C) was over 50000 nM in each case. Moreover, the IC50 (in the experiment with G-361; in the experiment with PC-3; in [5]) was over 50000 nM each time.
With `COc1cc(CCC(O)CCc2cc(OC)c(OC)c(OC)c2)cc(OC)c1OC`, the IC50 (in the experiment on GCIY; in experiment [2]; in the experiment on HCT-116; with DLD-1; in the experiment on A549 [3]; with ACHN) was over 50000 nM throughout. The IC50 (with Huh-7; in experiment [4]; in the experiment on MCF7; in the experiment with A-431; in the experiment with HuCCT-1; with 8505C) was over 50000 nM throughout. Further, the half-maximal inhibitory concentration (IC50) (in the experiment on G-361; with PC-3; in [5]) was over 50000 nM each time.
In the case of `COc1cc(/C=C2\CN(C(C)=O)C/C(=C\c3cc(OC)c(OC)c(OC)c3)C2=O)cc(OC)c1OC`, the IC50 in the experiment on A549 [1], in the experiment on MV4-11, in the experiment on MG-63, with NCI-H23, with MDA-MB-231 and in the experiment on MDA-MB-468 was 390 nM throughout.
As to `CCOC(C)COc1c(OC)cc(/C=C/C(=O)/C=C/c2cc(OC)c(OC)c(OC)c2)cc1OC` (stereo not drawn), the 50% inhibitory concentration (IC50) (in the experiment with GCIY; in experiment [2]; with HCT-116; in the experiment on DLD-1; in the experiment on A549 [3]; in the experiment on ACHN) was 1000 nM in each case. Further, the IC50 (with Huh-7; in experiment [4]; in the experiment on MCF7; in the experiment on A-431; in the experiment with HuCCT-1; in the experiment on 8505C) was 1000 nM throughout. In addition, the IC50 (with G-361; in the experiment with PC-3; in experiment [5]) was 1000 nM each time.
Turning to `O=C1/C(=C/c2cccc(/N=C/c3cccc(O)c3O)c2)CCC/C1=C\c1cccc(/N=C/c2cccc(O)c2O)c1`, the IC50 in the experiment with HeLa, with THP-1, in the experiment on HepG2 and with K562 was under 5000 nM each time.
Regarding `O=C1/C(=C/c2cccc(/N=C/c3ccc(O)c(O)c3O)c2)CCC/C1=C\c1cccc(/N=C/c2ccc(O)c(O)c2O)c1`, the IC50 with HeLa, with THP-1, with HepG2 and in the experiment on K562 was under 5000 nM throughout.
`COc1cc(/C=C/C(=O)/C=C/c2cccc(O)c2)cc(OC)c1OC`: the IC50 (in the experiment on GCIY; in experiment [2]; in the experiment on HCT-116; in the experiment with DLD-1; with A549 [3]; in the experiment on ACHN) was 1000 nM each time. Moreover, the IC50 (with Huh-7; in [4]; in the experiment on MCF7; with A-431; with HuCCT-1; in the experiment with 8505C) was 1000 nM each time. The IC50 (in the experiment with G-361; in the experiment with PC-3; in [5]) was 1000 nM each time.
With `CCOC(C)Oc1cccc(/C=C/C(=O)/C=C/c2cc(OC)c(OC)c(OC)c2)c1` (stereo not drawn), the IC50 (with GCIY; in experiment [2]; in the experiment with HCT-116; in the experiment with DLD-1; in the experiment with A549 [3]; in the experiment with ACHN) was 1000 nM in each case. Besides, the IC50 (in the experiment with Huh-7; in experiment [4]; in the experiment on MCF7; with A-431; in the experiment on HuCCT-1; in the experiment with 8505C) was 1000 nM each time. The IC50 (in the experiment with G-361; with PC-3; in experiment [5]) was 1000 nM each time.

Values taken from ChEMBL document CHEMBL5244235, “Diarylpentanoids with antitumor activity: A critical review of structure-activity relationship studies” (Eur J Med Chem, 2020).
